Assay results as given in patent US20250248398A1, “TICK REPELLENT” (priority 2024, published 2025).

Legend:
Ixodes scapularis = experiment: two-choice still-air olfactometer (3D-printed), 30 minutes, synthetic fungal metabolites; type: in vivo; details: female I. scapularis
Protocol: All behavioral responses of ticks to experimental substrates were tested in two-choice still-air olfactometers (150 mm×50 mm×17 mm; FIGS. 1a, 1b, 1c). […] Each olfactometer had three inset circular chambers (with an inner diameter of 28 mm) interconnected with inset linear paths (24 mm×10 mm×7 mm).
Treatment and control test stimuli were assigned to lateral chambers, alternating the position of stimuli between replicates to account for potential side bias. To initiate an experimental replicate, a single tick was introduced into the central chamber, briefly exposed to human exhale to stimulate movement, and then allowed 30 minutes to respond. […] Olfactometers were sealed with parafilm and a rectangular lid (150 mm×50 mm×3 mm).
A tick was considered a responder if it was found in a lateral chamber after 30 minutes. After each experiment, olfactometers were cleaned with 70% ethanol and hexane. At the end of each experimental day, olfactometers were washed with Sparkleen (Thermo Fisher Scientific, MA, U.S.A), rinsed with distilled water, and air-dried.
Similarly, geosmin dissolved in 25 μL of methanol was applied at doses of 1.0 ng (Exp. 4), 0.1 ng (Exp. 5), and 0.01 ng (Exp. 6), using 25 μL of methanol as the control stimulus. In each experimental replicate, methanol was allowed 5 minutes to evaporate before a tick was introduced into the central olfactometer chamber.
In each experiment, a watch glass (28 mm diameter) fitted with a congruent piece of filter paper was placed in lateral olfactometer chambers, as shown in FIG. 1. In experiment 7, 1 ng of 2-MIB was dissolved in 25 μL of methanol and applied to the treatment filter paper, and 25 μL of methanol was applied to the corresponding control filter paper. In experiment 8, 1 ng of L-borneol and 1 ng of D-borneol were each dissolved in 25 μL of methanol and applied to the treatment filter paper, and 50 μL of methanol was applied to the control filter paper. In each experimental replicate, methanol was allowed 5 minutes to evaporate before a tick was introduced into the central olfactometer chamber.
In each experimental replicate, methanol was allowed 5 minutes to evaporate before a tick was introduced into the central olfactometer chamber.

[1] = tested on: American dog ticks, Dermacentor variabilis; experiment: two-choice still-air olfactometer (3D-printed), 30 minutes; type: in vivo; details: female D. variabilis, 1 ng in 25 μL methanol
Protocol: (§1) All behavioral responses of ticks to experimental substrates were tested in two-choice still-air olfactometers (150 mm×50 mm×17 mm; FIGS. 1a, 1b, 1c). Still-air, instead of moving-air, olfactometers were used because off-host ticks encounter fungi in soil microhabitats such as leaf litter where there is typically little, if any, air movement. Each olfactometer had three inset circular chambers (with an inner diameter of 28 mm) interconnected with inset linear paths (24 mm×10 mm×7 mm).
(§2) Olfactometers were modeled and 3D-printed using Autodesk Fusion 360 (Version 13.2.0.9150), Creality Slicer (Version 4.8.2), and an Ender-3 Pro 3D printer (Creality, Shengzhen, China). Olfactometers were printed using translucent 1.75 mm (±0.03 mm dimensional accuracy) polylactic acid (PLA) filament ([…], OH, U.S.A.). To reduce the porosity of 3D-printed olfactometers, XTC-3D brush-on epoxy coating was applied (Smooth-On Inc., PA, U.S.A.).
(§3) Treatment and control test stimuli were assigned to lateral chambers, alternating the position of stimuli between replicates to account for potential side bias. To initiate an experimental replicate, a single tick was introduced into the central chamber, briefly exposed to human exhale to stimulate movement, and then allowed 30 minutes to respond. […]

[2] = tested on: lone star ticks, Amblyomma americanum; experiment: as above; type: in vivo; details: female A. americanum, 1 ng in 25 μL methanol
Protocol: as §1, §2, §3

I. scapularis tick = experiment: two-choice still-air Pyrex glass olfactometer, 20 hours, natural and synthetic ant metabolites; set-up: species or system Ixodes scapularis; details: in vivo
Protocol: Treatment and control stimuli were assigned to the two lateral chambers, alternating the position of stimuli between replicates to account for potential side bias. Both lateral chambers were also fitted with a wet cotton ball (Thermo Fisher Scientific, MA, U.S.A.) to ensure sufficiently high humidity.
To initiate an experimental replicate, a single I. scapularis tick was introduced into the central chamber, briefly exposed to human exhale to stimulate movement, and then allowed 20 hours to respond. A tick was considered a responder if it was found in a lateral chamber or in a connecting glass tube closer to a lateral chamber than the central chamber, as shown in FIG. 2. To prevent tick escape, all three chambers of the olfactometer were sealed with Parafilm (Bemis, WI, U.S.A.) for the duration (i.e., 20 hours) of the experiment.
To minimize the potential for tick escape, and to prevent ticks from sensing cues (e.g., convective heat, infrared radiation, CO2) originating from experimentalists that initiated or scored experiments, olfactometers (n=10-15) were housed in a plexiglass box (112 cm×24 cm×14 cm). Experiments were run under a 14:10 light/dark cycle, thus enabling ticks to respond to test stimuli while maintaining a circadian rhythm. […]

[3] = dose 1 ng in 25 μL methanol on filter paper

Row | SMILES | deterrence of ticks (treatment vs methanol control) (Ixodes scapularis; dose 0.01 ng in 25 μL methanol) | deterrence of ticks (treatment vs methanol control) (Ixodes scapularis; dose 0.1 ng in 25 μL methanol) | deterrence of ticks (treatment vs methanol control) (Ixodes scapularis; [3]) | deterrence of ticks (treatment vs methanol control) [1] | deterrence of ticks (treatment vs methanol control) [2] | deterrence of ticks (treatment vs DCM control) (I. scapularis tick)
1 | CC1(C)[C@@H]2CC[C@@]1(C)[C@](C)(O)C2 [2-MIB, 2-methylisoborneol] | not deterred | moderately deterred | strongly deterred | deterred | deterred | 
2 | O=CO [formic acid] |  |  |  |  |  | deterred neither
3 | CC1CCCC2(C)CCCCC12O (stereo not drawn) [geosmin, reference compound] | not deterred | not deterred | not deterred |  |  | 
